Source: ChEMBL document CHEMBL4808204, “Discovery of non-proteinogenic amino acids inhibiting biofilm formation by S. aureus and methicillin-resistant S. aureus” (Bioorg Med Chem Lett, 2021)
Active and inactive are the calls of the source. The calls are words filed in the database; no cut-off is given here.

What was measured:
Pseudomonas aeruginosa [1] = test: Antibiofilm activity against Pseudomonas aeruginosa assessed as inhibition of biofilm formation at 100 uM; assay type: functional
Staphylococcus aureus [2] = test: Antibiofilm activity against Staphylococcus aureus assessed as inhibition of biofilm formation at 66 uM; assay type: functional
Staphylococcus aureus [3] = test: Antibacterial activity in Staphylococcus aureus assessed as bacterial growth rate at 100 uM measured by UV absorbance based analysis; assay type: functional
Staphylococcus aureus [4] = test: Antibiofilm activity against Staphylococcus aureus assessed as biofilm formation at 100 uM measured by crystal violet staining based microplate reader assay; assay type: functional
Staphylococcus aureus [5] = test: Antibiofilm activity against Staphylococcus aureus assessed as inhibition of biofilm formation at 100 uM; assay type: functional
Staphylococcus aureus [6] = test: Antibiofilm activity against Staphylococcus aureus assessed as inhibition of biofilm formation at 60 uM; assay type: functional
Staphylococcus aureus [7] = test: Antibiofilm activity against Staphylococcus aureus assessed as inhibition of biofilm formation at 500 uM; assay type: functional
Staphylococcus aureus [8] = test: Antibiofilm activity against Staphylococcus aureus assessed as inhibition of biofilm formation at 10 uM measured by crystal violet staining based microplate reader assay; assay type: functional
Listeria monocytogenes = test: Antibiofilm activity against Listeria monocytogenes assessed as inhibition of biofilm formation by UV absorbance based analysis; assay type: functional, organism-based; settings: dose 1-100 µM
Staphylococcus aureus [9] = test: Antibiofilm activity against Staphylococcus aureus assessed as inhibition of biofilm formation by UV absorbance based analysis; assay type: functional, organism-based; settings: dose 1-100 µM
Escherichia coli = test: Antibiofilm activity against Escherichia coli assessed as inhibition of biofilm formation at 1 to 100 uM by UV absorbance based analysis; assay type: functional, organism-based; settings: dose 1-100 µM
[10] = test system: Staphylococcus epidermidis; test: Antibiofilm activity against Staphylococcus epidermidis assessed as inhibition of biofilm formation at 1 to 100 uM by UV absorbance based analysis; assay type: functional, organism-based; settings: dose 1-100 µM
Staphylococcus aureus [11] = test: Antibiofilm activity against Staphylococcus aureus assessed as inhibition of attachment of biofilm on the bacterial surface at 1 to 100 uM; assay type: functional, organism-based; settings: dose 1-100 µM
Pseudomonas aeruginosa [12] = test: Antibiofilm activity against Pseudomonas aeruginosa assessed as inhibition of biofilm formation at 1 to 100 uM by UV absorbance based analysis; assay type: functional, organism-based; settings: dose 1-100 µM
Streptococcus mutans = test: Antibiofilm activity against Streptococcus mutans assessed as inhibition of biofilm formation at 1 to 100 uM by UV absorbance based analysis; assay type: functional, organism-based; settings: dose 1-100 µM
HeLa = test: Cytotoxicity against human HeLa cells at 1 to 100 uM by WST8 assay; assay type: cell-based; settings: dose 1-100 µM
Acinetobacter baumannii = test: Antibiofilm activity against Acinetobacter baumannii assessed as inhibition of biofilm formation at 1 to 100 uM by UV absorbance based analysis; assay type: functional, organism-based; settings: dose 1-100 µM
Pseudomonas aeruginosa [13] = test: Antibiofilm activity against Pseudomonas aeruginosa assessed as inhibition of biofilm formation at 100 uM measured by crystal violet staining based microplate reader assay; assay type: functional, organism-based
Staphylococcus aureus [14] = test: Antibiofilm activity against methicillin-resistant Staphylococcus aureus assessed as inhibition of biofilm formation by UV absorbance based analysis; assay type: functional, organism-based; settings: dose 1-100 µM

SMILES | Activity (Staphylococcus aureus [3]) | Biofilm formation (Staphylococcus aureus [4]) | also measured
O=c1c(O)c(-c2ccc(O)c(O)c2)oc2cc(O)cc(O)c12 [QUERCETIN] | – | – | inhibition at 100 µM (Pseudomonas aeruginosa [1]): > 70%; inhibition at 66 µM (Staphylococcus aureus [2]): > 70%
NC(Cc1ccc(Oc2ccc(O)cc2)cc1)C(=O)O (configuration not stated) | 106% | 15% | –
N[C@@H](Cc1ccc(O)c([N+](=O)[O-])c1)C(=O)O | 80% | 16% | –
N[C@H](CO)C(=O)O [(D)-SERINE] | 85% | 83% | –
NC(C(=O)O)C(O)c1ccccc1 (configuration not stated) | 97% | 101% | –
N[C@H](Cc1ccc(O)cc1)C(=O)O | 119% | 85% | inhibition at 100 µM (Staphylococcus aureus [5]): > 70%
CC(C)c1ccc2c(c1)CC[C@H]1[C@](C)(C(=O)O)CCC[C@]21C [DEHYDROABIETIC ACID] | – | – | inhibition at 60 µM (Staphylococcus aureus [6]): 90%
NCCc1ccc(O)c(O)c1 [DOPAMINE] | 98% | – | Activity (Staphylococcus aureus [4]): 79%
N[C@H](Cc1ccccc1)C(=O)O [D-PHENYLALANINE] | – | – | inhibition at 500 µM (Staphylococcus aureus [7]): > 70%
CNC[C@H](O)c1ccc(O)c(O)c1 [EPINEPHRINE] | 79% | – | Activity (Staphylococcus aureus [4]): 77%
N[C@@H](Cc1ccc(F)c(F)c1)C(=O)O | 145% | 31% | –
CCCCCCCCCCCCCC(=O)NCC(=O)O | 38% | 4% | –
N[C@@H](Cc1ccc(Cl)c(Cl)c1)C(=O)O | 117% | 46% | –
NC(Cc1cc(I)c(Oc2ccc(O)c(I)c2)c(I)c1)C(=O)[O-].[Na+] (configuration not stated) | 18% | 2% | –
NC(Cc1cc(I)c(O)c(I)c1)C(=O)O (configuration not stated) | 26% | 5% | –
NC(C(=O)O)C(O)c1ccc(O)c(O)c1 (configuration not stated) | 104% | 12% | inhibition at 10 µM (Staphylococcus aureus [8]): 53%; Activity (Listeria monocytogenes): Dose-Dependent Effect; Activity (Staphylococcus aureus [9]): Dose-Dependent Effect; Activity (Escherichia coli): inactive; Activity [10]: inactive; Activity (Staphylococcus aureus [11]): inactive; Activity (Pseudomonas aeruginosa [12]): inactive; Activity (Streptococcus mutans): inactive; Activity (HeLa): Non-Toxic; Activity (Acinetobacter baumannii): inactive; Activity (Pseudomonas aeruginosa [13]): inactive; Activity (Staphylococcus aureus [14]): Dose-Dependent Effect
N[C@@H](Cc1ccc(O)c(O)c1)C(=O)O [LEVODOPA] | 84% | 32% | –
O=C(O)[C@H]1CCCN1 [D-PROLINE] | – | – | inhibition at 500 µM (Staphylococcus aureus [7]): > 70%
NC(Cc1cc(Br)c(O)c(Br)c1)C(=O)O (configuration not stated) | 72% | 6% | –
Oc1ccccc1O [CATECHOL] | 106% | 84% | –
OCc1ccc(O)c(O)c1 | 104% | 107% | –
